Some results are limits rather than exact numbers.

For the assay, the target named is T1, Glucocorticoid Receptor (GR) (Homo sapiens, UniProt P04150).
T1 construct: purchased Invitrogen P2893
T1 sequence (P04150 1-777): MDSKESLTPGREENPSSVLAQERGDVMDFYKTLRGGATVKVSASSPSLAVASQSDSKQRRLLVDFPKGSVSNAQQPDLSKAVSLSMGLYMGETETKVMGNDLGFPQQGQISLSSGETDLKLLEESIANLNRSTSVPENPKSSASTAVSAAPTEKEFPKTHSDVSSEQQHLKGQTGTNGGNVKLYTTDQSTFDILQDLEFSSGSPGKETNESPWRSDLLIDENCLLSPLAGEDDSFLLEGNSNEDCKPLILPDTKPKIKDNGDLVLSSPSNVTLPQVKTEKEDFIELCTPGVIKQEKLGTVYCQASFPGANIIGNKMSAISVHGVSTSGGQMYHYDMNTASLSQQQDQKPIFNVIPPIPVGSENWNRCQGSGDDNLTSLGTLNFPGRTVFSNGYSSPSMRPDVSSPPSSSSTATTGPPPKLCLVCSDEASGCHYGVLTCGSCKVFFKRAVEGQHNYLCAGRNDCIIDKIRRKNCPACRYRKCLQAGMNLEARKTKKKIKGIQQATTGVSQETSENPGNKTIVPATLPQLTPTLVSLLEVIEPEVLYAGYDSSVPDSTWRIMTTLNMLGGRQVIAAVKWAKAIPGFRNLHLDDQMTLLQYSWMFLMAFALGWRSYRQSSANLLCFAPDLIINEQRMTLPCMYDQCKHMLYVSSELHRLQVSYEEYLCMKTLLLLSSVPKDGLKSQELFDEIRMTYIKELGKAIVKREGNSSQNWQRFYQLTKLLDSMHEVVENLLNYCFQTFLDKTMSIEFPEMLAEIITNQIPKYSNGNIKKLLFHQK
Briefly: GR Florescence Polarization Assay (PolarScreen Glucocorticoid Receptor Competitor Assay, Red). To be noted: Fluorescense polarization binding ranges; competition with fluorescent glucocorticoid, incubated overnight at 4° C. The method, then:
GR Florescence Polarization Assay Florescence polarization assays were carried out using the PolarScreen™ Glucocorticoid Receptor Competitor Assay, Red from Invitrogen (P2893). The assay buffer was prepared according to the manufacturer's protocol and used to dilute the fluorescent glucocorticoid and GR. Compounds were prepared and serial diluted 1:4 in DMSO. Compound, fluorescent glucocorticoid and GR were added in a final volume of 20 μL and incubated overnight at 4° C. Fluorescent polarization was measured on the Perkinelmer Envision®.

A word on the IC50: it is the concentration that inhibits the measured activity by half. `CC[C@@]1(O)CC[C@@]2(Cc3ccccc3)c3ccc(C(=O)Nc4ccc(-c5ccn[nH]5)nc4C)cc3CCC[C@H]2C1` [Example 86, (7aS,9R,11aS)-11a-Benzyl-9-ethyl-9-hydroxy-6,7,7a,8,9,10,11,11a-octahydro-5H-dibenzo[a,c]cycloheptene-3-carboxylic acid [2-methyl-6-(2H-pyrazol-3-yl)-pyridin-3-yl]-amide] showed an IC50 of under 0.1 µM.

In turn, `CC[C@@]12CC[C@](O)(CCC(F)(F)F)C[C@@H]1CCCc1cc(C(=O)Nc3cccnc3C)ccc12.CC[C@]12CC[C@@](O)(CCC(F)(F)F)C[C@H]1CCCc1cc(C(=O)Nc3cccnc3C)ccc12` [Example 133, (7aS,9S,11aR)-11a-Ethyl-9-hydroxy-9-(3,3,3-trifluoro-propyl)-6,7,7a,8,9,10,11,11a-octahydro-5H-dibenzo[a,c]cycloheptene-3-carboxylic acid (2-methyl-pyridin-3-yl)-amide; compound with (7aR,9R,11aS)-11a-ethyl-9-hydroxy-9-(3,3,3-trifluoro-propyl)-6,7,7a,8,9,10,11,11a-octahydro-5H-dibenzo[a,c]cycloheptene-3-carboxylic acid (2-methyl-pyridin-3-yl)-amide] displayed an IC50 of under 0.1 µM.

For the compound `Cc1ncccc1NC(=O)c1ccc2c(c1)CCC[C@H]1C[C@](C)(O)CC[C@@]21Cc1ccccc1` (racemic) [Example 30, (7aS,9R,11aS)-11a-Benzyl-9-hydroxy-9-methyl-6,7,7a,8,9,10,11,11a-octahydro-5H-dibenzo[a,c]cycloheptene-3-carboxylic acid (2-methyl-pyridin-3-yl)-amide; compound with (7aR,9S,11aR)-11a-benzyl-9-hydroxy-9-methyl-6,7,7a,8,9,10,11,11a-octahydro-5H-dibenzo[a,c]cycloheptene-3-carboxylic acid (2-methyl-pyridin-3-yl)-amide], the IC50 is under 0.1 µM.

In turn, `CC[C@@]12CC[C@@](C)(O)C[C@@H]1CCCc1cc(C(=O)Nc3cccnc3C)ccc12` (single isomer, unassigned) [Example 60] returned an IC50 of under 0.1 µM.

For the compound `CC[C@@]1(O)CC[C@@]2(Cc3ccccc3)c3c(cnn3C)CCC[C@H]2C1.CC[C@]1(O)CC[C@]2(Cc3ccccc3)c3c(cnn3C)CCC[C@@H]2C1` [Example 38, (6aS,8R,10aS)-10a-Benzyl-8-ethyl-1-methyl-1,4,5,6,6a,7,8,9,10,10a-decahydro-1,2-diaza-benzo[e]azulen-8-ol; compound with (6aR,8S,10aR)-10a-benzyl-8-ethyl-1-methyl-1,4,5,6,6a,7,8,9,10,10a-decahydro-1,2-diaza-benzo[e]azulen-8-ol], the 50% inhibitory concentration (IC50) was in the range of 1 to 10 µM.

As to `Cc1ncccc1NC(=O)c1ccc2c(c1)CCC[C@H]1C[C@@](O)(c3ccccc3)[C@H](O)C[C@@]21Cc1ccccc1` [Example 43, (7aS,9R,10R,11aR)-11a-Benzyl-9,10-dihydroxy-9-phenyl-6,7,7a,8,9,10,11,11a-octahydro-5H-dibenzo[a,c]cycloheptene-3-carboxylic acid (2-methyl-pyridin-3-yl)-amide; compound with (7aR,9S,10S,11aS)-11a-benzyl-9,10-dihydroxy-9-phenyl-6,7,7a,8,9,10,11,11a-octahydro-5H-dibenzo[a,c]cycloheptene-3-carboxylic acid (2-methyl-pyridin-3-yl)-amide], the IC50 lay in the range of 0.1 to 1 µM.

`CC[C@@]1(O)CC[C@@]2(Cc3ccccc3)c3ccc(C(=O)Nc4nncs4)cc3CCC[C@H]2C1` [Example 74] had an IC50 of 0.1 to 1 µM.

The values are drawn from patent US20120238549A1, “Nuclear Hormone Receptor Modulators” (ABBOTT LABORATORIES, priority 2011, published 2012).
